In patent US9598387B2 (Southern Research Institute, priority 2012, dated 2017):
Read-outs that look alike come from different tables or passages of the source.

Key:
[1] = molecular target: human D2-long dopamine receptor (Homo sapiens (Human), UniProt P14416); assay: Radioligand binding (125I-IABN competition), D2; details: HEK cell membranes expressing human D2-long
Experimental: (§1) The affinities of the target compounds were determined using radioligand binding experiments. […] Competition curves were modeled for a single site. Data from competition dose-response curves were analyzed using Tablecurve program (Jandel). IC50 values were converted to equilibrium dissociation constants (Ki values) using the Cheng and Prusoff correction.

[2] = molecular target: T1, human D3 dopamine receptor (Homo sapiens (Human), UniProt P35462); assay: Radioligand binding (125I-IABN competition), D3; details: for Ki: 125I-IABN competition, HEK cell membranes expressing human D3; for D2/D3 (D3 selectivity ratio, D2 Ki/D3 Ki): calculated D2 Ki/D3 Ki
T1 sequence (P35462 whole entry): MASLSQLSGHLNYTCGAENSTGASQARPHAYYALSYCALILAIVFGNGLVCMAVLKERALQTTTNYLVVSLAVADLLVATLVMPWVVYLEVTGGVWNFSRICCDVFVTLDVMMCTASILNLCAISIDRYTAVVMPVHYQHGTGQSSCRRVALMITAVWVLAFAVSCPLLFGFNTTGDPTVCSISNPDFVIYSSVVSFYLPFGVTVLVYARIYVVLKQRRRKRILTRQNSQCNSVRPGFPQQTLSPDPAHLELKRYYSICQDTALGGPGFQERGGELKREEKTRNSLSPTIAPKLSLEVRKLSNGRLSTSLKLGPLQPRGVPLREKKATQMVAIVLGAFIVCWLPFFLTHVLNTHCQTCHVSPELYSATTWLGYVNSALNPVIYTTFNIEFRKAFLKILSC
Experimental: as §1

[3] = molecular target: T1, human D3 dopamine receptor; assay: Whole Cell Adenylyl Cyclase Assay, D3; format: cell-based; details: inhibition of forskolin (100 μM) stimulated cAMP, normalized to quinpirole; compound conc ≥10× Ki (per compound); mean ± S.E.M.
Experimental: The intrinsic activity of the compounds was evaluated by determining their ability to inhibit forskolin-dependent (100 μM) stimulation of adenylyl cyclase activity using a whole cell assay. A whole cell-cyclic AMP accumulation assay was performed with stably transfected HEK cells expressing human D2 or D3 dopamine receptors. This assay is an adaptation of an earlier published method (Su et al., Cyclic Nucleotide Res. 1976, 2, 257-285). Details regarding this method have been published (Chu, W. et al. Bioorg. Med. Chem. 2005, 13, 77-87; Taylor, M. et al. Synapse 2010, 64, 251-266). Confluent (60-80%) HEK cells transfected with recombinant D2-like dopamine receptors were grown in DMEM/10% fetal calf serum containing geneticin in […] flasks. The endogenous ATP pool is radioactively labeled by preincubating the cells in serum-free DMEM/25 mM Hepes medium containing 2 μCi/mL of [2,8-^3H]-adenine (20-Ci/mmol) in a 5% CO2 incubator at 37° C. for 75 min. The radioactive medium was removed by aspiration. Serum-free DMEM (5.6 mL) containing 25 mM HEPES, pH 7.4, and 0.1 mM of the phosphodiesterase inhibitor isobutylmethylxanthine was added to the flask. A […] aliquot of cells was removed and added to 50 μL of forskolin (100 μM) and 50 μL of test drug or quinpirole in DMEM-HEPES. The cells were incubated for 20 min at 37° C. (vortexing every 5 min). The reaction was terminated by the addition of 0.5 mL of 10% trichloroacetic acid (w/v) containing 1.0 mM unlabeled cyclic AMP as a recovery standard. Both the [^3H]-cyclic AMP and the [^3H]-ATP fractions were collected following separation using columns of Dowex AG-50W-X4 and alumina. The final yield of [^3H]-cyclic AMP is corrected for column recovery of unlabeled cyclic AMP determined spectrophotometrically (OD259). The results are reported as percent conversion of [^3H]-ATP into [^3H]-cyclic AMP. The values for the percent inhibition are reported as the actual percent of inhibition of the ^3H-cAMP accumulation relative to the assay performed in the absence of a test compound, minus basal activity. […] The percent maximum response is the value for the inhibition normalized to the value for the full agonist quinpirole.

human D2 receptors = human D2 receptors (Homo sapiens (Human), UniProt P14416); assay: D2 Mitogenesis Functional Assay (3H-thymidine uptake, CHOp-D2 cells); format: cell-based; details: for Emax at 10 µM: % maximum stimulation vs quinpirole (100%), read-out: D2 Agonist Emax; for Emax at 10 µM / D2 Antagonist Imax: at 10 μM; for D2 Antagonist Imax: inhibition of quinpirole stimulation of mitogenesis; for IC50: read-out: D2 Antagonist IC50
Sequence of human D2 receptors (P14416 whole entry): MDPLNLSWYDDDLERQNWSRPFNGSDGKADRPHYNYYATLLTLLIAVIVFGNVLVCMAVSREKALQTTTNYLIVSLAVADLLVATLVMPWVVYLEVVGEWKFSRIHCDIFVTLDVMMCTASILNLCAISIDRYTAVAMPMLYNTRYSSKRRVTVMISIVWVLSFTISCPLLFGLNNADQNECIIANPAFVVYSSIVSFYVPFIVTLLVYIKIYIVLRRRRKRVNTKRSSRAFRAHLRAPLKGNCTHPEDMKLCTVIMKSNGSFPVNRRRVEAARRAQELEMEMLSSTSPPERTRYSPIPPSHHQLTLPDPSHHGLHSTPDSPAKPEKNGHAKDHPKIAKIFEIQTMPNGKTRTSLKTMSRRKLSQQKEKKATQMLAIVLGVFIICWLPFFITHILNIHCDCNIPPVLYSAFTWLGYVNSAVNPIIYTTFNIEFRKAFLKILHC
Experimental: (§2) These assays are based on ^3H-thymidine uptake by cells that are proliferating.
CHO cells expressing human D2 receptors (CHOp-D2 cells) were maintained in alpha-MEM with 10% FCS, 0.05% pen-strep, and 200 μg/mL of G418. […] The cells were incubated at 37° C. in alpha-MEM with 10% FCS. After 48-72 hours, the cells were rinsed twice with serum-free alpha-MEM and incubated for 24 hours at 37° C. Serial dilutions of test compounds were made by the Biomek robotics system in serum-free alpha-MEM. In the functional assay for agonism, the medium was removed and replaced with 100 μL of test compound in serum-free alpha-MEM. In the antagonist assay, the serial dilution of the putative antagonist test compound was added in 90 μL (1.1× of final concentration) and 300 nM quinpirole (30 nM final) was added in […]. After another 24-hour incubation at 37° C., 0.25 μCi of [^3H]thymidine in alpha-MEM supplemented with 10% FCS was added to each well and the plates were further incubated for 2 hours at 37° C. The cells were trypsinized by addition of 10× trypsin solution (1% trypsin in calcium-magnesium-free phosphate-buffered saline) and the plates were filtered and counted as usual. Quinpirole was run as an internal control and dopamine was included for comparative purposes. Butaclamol was run as the standard antagonist.

D3R = D3R (Homo sapiens (Human), UniProt P35462); assay: D3 Mitogenesis Functional Assay (3H-thymidine uptake, CHOp-D3 cells); format: cell-based; details: for Emax at 10 µM: % maximum stimulation vs quinpirole (100%), read-out: D3 Agonist Emax; for D3 Antagonist Imax: inhibition of quinpirole stimulation of mitogenesis; for IC50: read-out: D3 Antagonist IC50
Sequence of D3R (P35462 whole entry): as the sequence (P35462 whole entry) above
Experimental: as §2
CHO cells expressing human D3 receptors (CHOp-D3 cells) were maintained in alpha-MEM with 10% fetal bovine serum (FBS, Atlas Biologicals), 0.05% pen-strep, and 200 μg/ml of G418. […] The cells are incubated at 37° C. in alpha-MEM with 10% FBS. After 48-72 hours, the cells are rinsed twice with serum-free alpha-MEM and incubated for 24 hours at 37° C. Serial dilutions of test compounds were made by the Biomek robotics system in serum-free alpha-MEM. In the functional assay for agonism, the medium is removed and replaced with 100 μL of test compound in serum-free alpha-MEM. In the antagonist assay, the serial dilution of the putative antagonist test compound was added in 90 μL (1.1× of final concentration) and 300 nM quinpirole (30 nM final) was added in 10 uL. After another 16-hour incubation at 37° C., 0.25 μCi of [^3H]thymidine in alpha-MEM supplemented with 10% FBS was added to each well and the plates were further incubated for 2 hours at 37° C. The cells were trypsinized by addition of 10× trypsin solution (1% trypsin in calcium-magnesium-free phosphate-buffered saline) and the plates were filtered and counted as usual. Quinpirole was run as an internal control and dopamine was included for comparative purposes. Butaclamol was run as the standard antagonist. Data were analyzed using GraphPAD Prism and agonist potency was expressed as EC50 values or % stimulation and antagonist potency was expressed as IC50 values. In these assays, based on the % maximum stimulation as compared to the standard agonist quinpirole (100%) the compounds were classified into following categories: ≧90% full agonist; 70-90% partial to full agonist; <70% partial agonist; 0-20% potential antagonist.

[4] = inhibition of quinpirole (30 nM final) stimulation of mitogenesis

Sequence of human D2-long dopamine receptor (P14416 whole entry): as the sequence (P14416 whole entry) above

Row | Ki [1] | Ki [2] | D2/D3 (D3 selectivity ratio, D2 Ki/D3 Ki) [2] | D3 Cyclase % Inhibition Normalized [3] | Emax at 10 µM (human D2 receptors) | Emax at 10 µM (D3R) | Compound | other results
1 | 572 nM | 20.5 ± 3.5 nM | 28 |  |  | < 20% | O=C(NCCCCN1CCN(c2ccnc3ccccc23)CC1)c1cn2ccccc2n1 [Compound 117, N-(4-(4-(Quinolin-4-yl)piperazin-1-yl)butyl)imidazo[1,2-a]pyridine-2-carboxamide] | IC50 (D3R; [4]): 120 ± 22 nM; D3 Antagonist Imax (D3R): 97.2%
2 | 4980 ± 843 nM | 98.7 ± 24.3 nM |  |  |  |  | O=C(NCCCCN1CCN(c2ccnc3cc(C(F)(F)F)ccc23)CC1)c1cn2ccccc2n1 [Compound 124, N-(4-(4-(7-(Trifluoromethyl)quinolin-4-yl)piperazin-1-yl)butyl)imidazo[1,2-a]pyridine-2-carboxamide] | 
3 | 1260 ± 142 nM | 161 nM | 8 |  |  |  | O=C(NCCCCN1CCN(c2ccc3ccccc3n2)CC1)c1cn2cccnc2n1 [Compound 126, N-(4-(4-(Quinolin-2-yl)piperazin-1-yl)butyl)imidazo[1,2-a]pyrimidine-2-carboxamide] | 
4 | 1130 ± 63.8 nM | 253 nM | 4 |  |  |  | O=C(NCCCCN1CCN(c2ncnc3ccccc23)CC1)c1cn2ccccc2n1 [Compound 127, N-(4-(4-(Quinazolin-4-yl)piperazin-1-yl)butyl)imidazo[1,2-a]pyridine-2-carboxamide] | 
5 | 2330 ± 785 nM | 285 ± 77 nM | 8 |  |  |  | O=C(NCCCCN1CCN(c2ccnc3ccccc23)CC1)c1nc2ccccn2c1Br [Compound 128, 3-Bromo-N-(4-(4-(quinolin-4-yl)piperazin-1-yl)butyl)imidazo[1,2-a]pyridine-2-carboxamide] | 
6 | 3560 ± 1950 nM | 323 ± 75 nM | 11 |  |  |  | O=C(NCCCCN1CCN(c2ccnc3ccccc23)CC1)c1nc2ccccn2c1Cl [Compound 129, 3-Chloro-N-(4-(4-(quinolin-4-yl)piperazin-1-yl)butyl)imidazo[1,2-a]pyridine-2-carboxamide] | 

The next lines start with the compound.

Row | Compound | Ki [1] | Ki [2] | D2/D3 (D3 selectivity ratio, D2 Ki/D3 Ki) [2] | D3 Cyclase % Inhibition Normalized [3] | Emax at 10 µM (human D2 receptors) | Emax at 10 µM (D3R) | other results
7 | Cc1nc(N2CCN(CCCCNC(=O)N3CCN(c4ccccc4)CC3)CC2)cc(C(C)(C)C)n1 [Compound 6, N-(4-(4-(6-(tert-Butyl)-2-methylpyrimidin-4-yl)piperazin-1-yl)butyl)-4-phenylpiperazine-1-carboxamide] | 12900 ± 2510 nM | 29.2 ± 5.3 nM | 442 | 26.4 ± 4.6% |  |  | 
8 | CC(C)(C)c1nc(N2CCN(CCCCNC(=O)N3CCN(c4ccccc4)CC3)CC2)c2ccccc2n1 [Compound 13, N-(4-(4-(2-(tert-Butyl)quinazolin-4-yl)piperazin-1-yl)butyl)-4-phenylpiperazine-1-carboxamide] | 4040 ± 965 nM | 43.1 ± 4.8 nM | 94 | 61.9 ± 6.4% |  |  | 
9 | CC(C)(C)c1nc(N2CCN(CCCCNC(=O)N3CCN(c4ncccn4)CC3)CC2)cc(C(F)(F)F)n1 [Compound 32, N-(4-(4-(2-(tert-Butyl)-6-(trifluoromethyl)pyrimidin-4-yl)piperazin-1-yl)butyl)-4-(pyrimidin-2-yl)piperazine-1-carboxamide] | 1190 ± 67.4 nM | 13.7 ± 3.1 nM | 87 | 40.8 ± 9.7% | < 1% | < 8% | EC50 (human D2 receptors; CHOp-D2 cells, stimulation of mitogenesis, read-out: D2 Agonist EC50): > 10 µM; D2 Antagonist Imax (human D2 receptors): 100% at 10 μM; IC50 (human D2 receptors): 257 ± 90 nM; EC50 (D3R; CHOp-D3 cells, stimulation of mitogenesis, read-out: D3 Agonist EC50): > 10 µM; D3 Antagonist Imax (D3R): 84.4%; IC50 (D3R): 195 ± 39 nM
10 | O=C(NCCCCN1CCN(c2cccc(Cl)c2Cl)CC1)N1CCC(c2ccccc2)CC1 [Compound 47, N-(4-(4-(2,3-Dichlorophenyl)piperazin-1-yl)butyl)-4-phenylpiperidine-1-carboxamide] | 102 ± 11 nM | 1.9 ± 0.4 nM | 53 | 78.9 ± 17.1% | < 20% | < 20% | D2 Antagonist Imax (human D2 receptors): 98.5% at 10 μM; IC50 (human D2 receptors): 286 ± 27 nM; D3 Antagonist Imax (D3R): 96.8%; IC50 (D3R): 40 ± 15 nM
11 | CC(C)(C)c1nc(N2CCN(CCCCNC(=O)C3CCC(c4ccccc4)CC3)CC2)cc(C(F)(F)F)n1 (stereo not drawn) [Compound 103, N-(4-(4-(2-(tert-Butyl)-6-(trifluoromethyl)pyrimidin-4-yl)piperazin-1-yl)butyl)-4-phenylcyclohexanecarboxamide] |  |  |  | 51.6 ± 13.4% |  |  | 
12 | CC(C)(C)c1nc(N2CCN(CCCCNC(=O)c3cn4cccnc4n3)CC2)cc(C(F)(F)F)n1 [Compound 114, N-(4-(4-(2-(tert-Butyl)-6-(trifluoromethyl)pyrimidin-4-yl)piperazin-1-yl)butyl)imidazo[1,2-a]pyrimidine-2-carboxamide] | 436 ± 43.4 nM | 11.8 ± 1.1 nM | 37 |  | < 1% | 14% | IC50 (human D2 receptors; [4]): 205 ± 48 nM; IC50 (D3R; [4]): 51 ± 21 nM
13 | CC(C)(C)c1nc(N2CCN(CCCCNC(=O)c3cn4nc(Cl)ccc4n3)CC2)cc(C(F)(F)F)n1 [Compound 116, N-(4-(4-(2-(tert-Butyl)-6-(trifluoromethyl)pyrimidin-4-yl)piperazin-1-yl)butyl)-6-chloroimidazo[1,2-b]pyridazine-2-carboxamide] | 655 ± 80.6 nM |  |  | 31.5 ± 7.0% | < 1% | < 1% | IC50 (human D2 receptors; [4]): 1160 ± 110 nM
